According to PubChem BioAssay (NCI):
Several values for one entry are separate records, joined by “and”; a condition that tells them apart may be missing. Identical values can stand only once.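 Compound exposure: 48 hours, 5 concentrations, 96-well plates. Abbreviation: GI50, concentration required for 50% inhibition of growth. TGI is the concentration that stops growth completely.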 Activity calls are given as the source filed them. Rule as the data show it: active = GI50 below about 0.43 µM; inactive = the rest.

Key:
Assay in all cases: NCI-60 cell line screen, 48 h
[1] = tested on: HCT-116 colon
[2] = tested on: CAKI-1 renal
[3] = tested on: OVCAR-5 ovarian
[4] = tested on: RXF 393 renal
[5] = tested on: MALME-3M melanoma
[6] = tested on: SW-620 colon
[7] = tested on: U251 CNS
[8] = tested on: SNB-75 CNS
[9] = tested on: HOP-62 NSCLC
[10] = tested on: RPMI-8226 leukemia
[11] = tested on: SNB-78 CNS
[12] = tested on: SF-268 CNS
[13] = tested on: HOP-18 NSCLC
[14] = tested on: OVCAR-4 ovarian
[15] = tested on: NCI-H522 lung
[16] = tested on: KM12 colon
[17] = tested on: SK-OV-3 ovarian
[18] = tested on: A549 NSCLC
[19] = tested on: NCI-H23 lung
[20] = tested on: ACHN renal
[21] = tested on: SK-MEL-28 melanoma
[22] = tested on: NCI-H460 lung
[23] = tested on: KM20L2 colon
[24] = tested on: HCT-15 colon
[25] = tested on: SK-MEL-5 melanoma
[26] = tested on: LXFL 529 NSCLC
[27] = tested on: HCC-2998 colon
[28] = tested on: HL-60(TB) leukemia
[29] = tested on: HT29 colon
[30] = tested on: DMS 114 small cell lung
[31] = tested on: SK-MEL-2 melanoma
[32] = tested on: DLD-1 colon
[33] = tested on: DMS 273 small cell lung
[34] = tested on: LOX IMVI melanoma
[35] = tested on: SNB-19 CNS
[36] = tested on: RXF-631 renal
[37] = tested on: A498 renal
[38] = tested on: SN12C renal
[39] = tested on: TK-10 renal
[40] = tested on: UACC-257 melanoma
[41] = tested on: CCRF-CEM leukemia
[42] = tested on: COLO 205 colon
[43] = tested on: SF-295 CNS
[44] = tested on: M14 melanoma
[45] = tested on: SR leukemia
[46] = tested on: HOP-92 NSCLC
[47] = tested on: NCI-H226 lung
[48] = tested on: UACC-62 melanoma
[49] = tested on: OVCAR-8 ovarian
[50] = tested on: SF-539 CNS
[51] = tested on: EKVX NSCLC
[52] = tested on: IGROV1 ovarian
[53] = tested on: MOLT-4 leukemia
[54] = tested on: 786-0 renal
[55] = tested on: K-562 leukemia
[56] = tested on: M19-MEL melanoma
[57] = tested on: UO-31 renal
[58] = tested on: OVCAR-3 ovarian
[59] = tested on: XF 498 CNS
[60] = tested on: MCF7 breast
[61] = tested on: MDA-MB-435
[62] = tested on: BT-549 breast
[63] = tested on: T-47D breast
[64] = tested on: MDA-MB-231 breast
[65] = tested on: MDA-N
[66] = tested on: HS 578T breast
[67] = tested on: DU-145 prostate
[68] = tested on: PC-3 prostate

Structure (SMILES): O=C(NC1C(O)C(O)C(CO)OC1n1cc(F)c(=O)[nH]c1=O)OCc1ccccc1 (stereo not given)
- TGI [1]: > 100000 nM
- TGI [2]: > 100000 nM
- TGI [3]: > 100000 nM
- TGI [4]: > 100000 nM
- TGI [5]: > 100000 nM
- TGI [6]: > 100000 nM
- TGI [7]: > 100000 nM
- TGI [8]: > 100000 nM
- TGI [9]: > 100000 nM
- TGI [10]: > 100000 nM
- TGI [11]: > 100000 nM
- TGI [12]: > 100000 nM
- TGI [13]: > 100000 nM
- TGI [14]: > 100000 nM
- TGI [15]: > 100000 nM
- TGI [16]: > 100000 nM
- TGI [17]: > 100000 nM
- TGI [18]: > 100000 nM
- TGI [19]: > 100000 nM
- TGI [20]: > 100000 nM
- TGI [21]: > 100000 nM
- TGI [22]: > 100000 nM
- TGI [23]: > 100000 nM
- TGI [24]: > 100000 nM
- TGI [25]: > 100000 nM
- TGI [26]: > 100000 nM
- TGI [27]: > 100000 nM
- TGI [28]: > 100000 nM
- TGI [29]: > 100000 nM
- TGI [30]: > 100000 nM
- TGI [31]: > 100000 nM
- TGI [32]: > 100000 nM
- TGI [33]: > 100000 nM
- TGI [34]: > 100000 nM
- TGI [35]: > 100000 nM
- TGI [36]: > 100000 nM
- TGI [37]: > 100000 nM
- TGI [38]: > 100000 nM
- TGI [39]: > 100000 nM
- TGI [40]: > 100000 nM
- TGI [41]: > 100000 nM
- TGI [42]: > 100000 nM
- TGI [43]: > 100000 nM
- TGI [44]: > 100000 nM
- TGI [45]: > 100000 nM
- TGI [46]: > 100000 nM
- TGI [47]: > 100000 nM

Structure (SMILES): O=C(CC1(O)C(=O)Nc2ccccc21)c1ccc2ccccc2c1 (stereo not given)
- TGI [1]: > 100000 nM
- TGI [2]: > 100000 nM
- TGI [3]: > 100000 nM
- TGI [48]: > 100000 nM
- TGI [4]: > 100000 nM
- TGI [5]: > 100000 nM
- TGI [6]: > 100000 nM
- TGI [8]: > 100000 nM
- TGI [49]: > 100000 nM
- TGI [9]: > 100000 nM
- TGI [50]: > 100000 nM
- TGI [10]: > 100000 nM
- TGI [11]: > 100000 nM
- TGI [12]: > 100000 nM
- TGI [14]: > 100000 nM
- TGI [51]: > 100000 nM
- TGI [15]: > 100000 nM
- TGI [17]: > 100000 nM
- TGI [18]: > 100000 nM
- TGI [52]: > 100000 nM
- TGI [19]: > 100000 nM
- TGI [53]: > 100000 nM
- TGI [20]: > 100000 nM
- TGI [54]: > 100000 nM
- TGI [21]: > 100000 nM
- TGI [22]: > 100000 nM
- TGI [23]: > 100000 nM
- TGI [55]: > 100000 nM
- TGI [24]: > 100000 nM
- TGI [25]: > 100000 nM
- TGI [26]: > 100000 nM
- TGI [27]: > 100000 nM
- TGI [56]: > 100000 nM
- TGI [28]: > 100000 nM
- TGI [29]: > 100000 nM
- TGI [57]: > 100000 nM
- TGI [30]: > 100000 nM
- TGI [31]: > 100000 nM
- TGI [32]: > 100000 nM
- TGI [33]: > 100000 nM
- TGI [34]: > 100000 nM
- TGI [35]: > 100000 nM
- TGI [58]: > 100000 nM
- TGI [36]: > 100000 nM
- TGI [37]: > 100000 nM
- TGI [38]: > 100000 nM
- TGI [39]: > 100000 nM
- TGI [40]: > 100000 nM
- TGI [42]: > 100000 nM
- TGI [43]: > 100000 nM
- TGI [59]: > 100000 nM
- TGI [44]: > 100000 nM
- TGI [46]: > 100000 nM
- TGI [47]: > 100000 nM

Structure (SMILES): O=[N+]([O-])c1cccc2nc3ccccc3c(NCCN(CCO)CCO)c12
- TGI [1]: 31.1 nM
- TGI [2]: 23.2 nM and 62.2 nM
- TGI [3]: 23.4 nM
- TGI [48]: 11.4 nM
- TGI [4]: 4.47 nM
- TGI [5]: 6.49 nM
- TGI [6]: 23.5 nM and 111 nM
- TGI [7]: 26.1 nM
- TGI [8]: 28.6 nM
- TGI [49]: 23.1 nM and 16.6 nM
- TGI [9]: 9.91 nM
- TGI [60]: 32.2 nM
- TGI [61]: 2.83 nM
- GI50 [50]: 13.7 nM
- TGI [50]: 26.6 nM and 59.4 nM
- TGI [10]: 97.1 nM
- TGI [11]: 194 nM and 52.3 nM
- TGI [12]: 29.6 nM and 113 nM
- TGI [14]: 14.7 nM and 81.2 nM
- GI50 [51]: 12.8 nM
- TGI [51]: 41.1 nM and 52.4 nM
- TGI [62]: 8.75 nM
- TGI [15]: 3.89 nM
- TGI [16]: 20.6 nM
- TGI [63]: 114 nM
- TGI [17]: 177 nM
- TGI [18]: 33.4 nM
- TGI [52]: 26.5 nM
- TGI [19]: 5.83 nM
- GI50 [53]: 4.13 nM
- TGI [53]: 90.3 nM
- TGI [20]: 20.5 nM and 34.5 nM
- TGI [54]: 29.6 nM
- GI50 [21]: 10.3 nM
- TGI [21]: 27 nM and 23 nM
- TGI [22]: 8.91 nM
- TGI [23]: 69 nM and 29 nM
- GI50 [55]: 4.76 nM
- TGI [55]: 28.3 nM
- TGI [24]: 66.8 nM and 169 nM
- TGI [64]: 9.7 nM
- TGI [25]: 5.74 nM and 13 nM
- TGI [26]: 108 nM and 24.3 nM
- TGI [27]: 6.74 nM
- TGI [29]: 20.2 nM
- GI50 [57]: 257 nM
- TGI [31]: 10.2 nM
- TGI [32]: 65.8 nM and 580 nM
- TGI [33]: 42.2 nM and 24.6 nM
- GI50 [34]: 11.8 nM
- TGI [34]: 31.9 nM and 33.1 nM
- TGI [35]: 108 nM and 346 nM
- TGI [58]: 14.4 nM
- TGI [36]: 108 nM and 40.5 nM
- TGI [37]: 11.6 nM
- TGI [38]: 28.7 nM and 85.9 nM
- TGI [65]: 2.9 nM
- TGI [39]: 138 nM
- GI50 [40]: 49.8 nM
- TGI [40]: 224 nM and 23.8 nM
- TGI [66]: 30.8 nM
- GI50 [41]: 15.6 nM
- TGI [41]: 109 nM
- TGI [42]: 14.6 nM
- TGI [67]: 10.8 nM
- TGI [43]: 54.9 nM and 17 nM
- TGI [59]: 24 nM
- TGI [44]: 8.21 nM
- TGI [68]: 10.9 nM
- TGI [45]: 110 nM
- TGI [46]: 17.1 nM
- TGI [47]: 4.1 nM and 19.3 nM

Structure (SMILES): C=CCCCCC1CCC2CCC(CCCC)N12 (stereo not given)
- outcome [1]: inactive
- outcome [3]: inactive
- outcome [48]: inactive
- outcome [4]: inactive
- outcome [5]: inactive
- outcome [6]: inactive
- outcome [7]: inactive
- outcome [8]: inactive
- outcome [49]: inactive
- outcome [9]: inactive
- outcome [50]: inactive
- outcome [10]: inactive
- outcome [11]: inactive
- outcome [12]: inactive
- outcome [14]: inactive
- outcome [15]: inactive
- outcome [16]: inactive
- outcome [17]: inactive
- outcome [18]: inactive
- outcome [52]: inactive
- outcome [19]: inactive
- outcome [53]: inactive
- outcome [20]: inactive
- outcome [54]: inactive
- outcome [21]: inactive
- outcome [22]: inactive
- outcome [23]: inactive
- outcome [55]: inactive
- outcome [25]: inactive
- outcome [26]: inactive
- outcome [27]: inactive
- outcome [56]: inactive
- outcome [28]: inactive
- outcome [57]: inactive
- outcome [30]: inactive
- outcome [31]: inactive
- outcome [32]: inactive
- outcome [33]: inactive
- outcome [34]: inactive
- outcome [35]: inactive
- outcome [58]: inactive
- outcome [36]: inactive
- outcome [38]: inactive
- outcome [39]: inactive
- outcome [40]: inactive
- outcome [41]: inactive
- outcome [42]: inactive
- outcome [43]: inactive
- outcome [59]: inactive
- outcome [44]: inactive
- outcome [46]: inactive
- outcome [47]: inactive
